This is an account of results in patent US12071453B2, “Neuroactive steroids, compositions, and uses thereof” (Sage Therapeutics, Inc., priority 2013, dated 2024).

SMILES strings stand for the structures. Some results are limits rather than exact numbers.

The target in data set [1] is [35S]-TBPS binding in rat brain cortical membranes. The data set can be described thus: Steroid inhibition of [35S]-TBPS binding, rat brain cortical membranes. The following applies: 3 nM [35S]-TBPS, in the presence of 5 μM GABA, read-out: 35S-TBPS Radioligand Displacement (IC50). In short, it runs like this:
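Washed P2 cortical membranes from Sprague-Dawley rats were incubated 90 min at room temperature with 3 nM [35S]-TBPS, 5 μM GABA and test steroid (0.5% DMSO) in 200 mM NaCl/50 mM Na–K phosphate, pH 7.4. Nonspecific binding was defined with 2 μM unlabeled TBPS, and samples were filtered and counted. IC50 and Imax came from non-linear fits, reported as mean ± SEM.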

Data set [2] has as its target T1, recombinant α4β3δ GABAA receptors (Homo sapiens, UniProt P28472+P48169).
T1 construct: expressed in transfected cells; host or cells: CHO cells, transiently transfected (Lipofectamine)
The data set can be described thus: Manual patch clamp electrophysiology in CHO cells transiently transfected with α4β3δ. In kind it is cell-based. The following applies: 10 μM compound, 2 μM GABA (EC20), read-out: GABA (α4β3δ) Manual patch in CHO, % efficacy at 10 μM.

The target of data set [3] is T2, recombinant α1β2γ2 GABAA receptors (Homo sapiens, UniProt P14867+P47870).
T2 construct: expressed in transfected cells; host or cells: LTK cells, stably transfected
As to the kind of experiment: Patch clamp electrophysiology (QPatch) in LTK cells stably transfected with α1β2γ2. In kind it is cell-based. The following applies: 10 μM compound, 2 μM GABA (EC20), read-out: GABA (α1β2γ2) Qpatch in Ltk, % efficacy at 10 μM.

Data set [4] has as its target T3, GABAA receptors composed of the α1β2γ2 subunits (GABRA1/GABRB2/GABRG2) (Homo sapiens, UniProt P14867+P47870).
T3 construct: expressed in transfected cells; host or cells: Xenopus laevis oocytes, injected (ratio 1:1:1)
The data set can be described thus: Two Electrode Voltage Clamp (TEVC), GABA receptor potentiation in Xenopus laevis oocytes, α1β2γ2. Type of data set: cell-based. The following applies: 10 μM compound, 10 μM GABA, read-out: GABA (α1β2γ2) % efficacy at 10 μM.

Data set [5] addresses T4, GABAA receptors composed of the α4β3δ subunits (GABRA4/GABRB3/GABRD) (Homo sapiens, UniProt P28472+P48169).
T4 construct: expressed in transfected cells; host or cells: Xenopus laevis oocytes, injected (ratio 5:1:5)
As to the kind of experiment: Two Electrode Voltage Clamp (TEVC), GABA receptor potentiation in Xenopus laevis oocytes, α4β3δ. In kind it is cell-based. The following applies: 10 μM compound, 3 μM GABA, read-out: GABA (α4β3δ) % efficacy at 10 μM. The protocol: The Two Electrode Voltage Clamp (TEVC) technique was used to investigate the effects of compounds at a concentration of 10 μM on GABAA receptors composed of the α1β2γ2 or α4β3δ subunits expressed in oocytes from the Xenopus laevis. GABA-evoked currents were recorded from oocytes that expressed the GABA receptors and the modulatory effects of the test items on these currents were investigated.
Ovaries were harvested from Xenopus laevis females that had been deeply anesthetized by cooling at 4° C. and immersion in Tricaine methanesulfonate (MS-222 at a concentration of 150 mg/L) in sodium bicarbonate (300 mg/L). Once anesthetized the animal was decapitated and pithed following the rules of animal rights from the Geneva canton. A small piece of ovary was isolated for immediate preparation while the remaining part was placed at 4° C. in a sterile Barth solution containing in mM NaCl 88, KCl 1, NaHCO3 2.4, HEPES 10, MgSO4·7H2O 0.82, Ca(NO3)2·4H2O 0.33, CaCl2·6H2O 0.41, at pH 7.4, and supplemented with 20 μg/ml of kanamycin, 100 unit/ml penicillin and 100 μg/ml streptomycin. All recordings were performed at 18° C. and cells were super-fused with medium containing in mM: NaCl 82.5, KCl 2.5, HEPES 5, CaCl2·2H2O, ·6H2O 1, pH 7.4.
Plasmids containing the RNAs of the human GABRA1/GABRB2/GABRG2 and GABRA4/GABRB3/GABRD genes were injected into oocytes using a proprietary automated injection device (Hogg el al., J. Neurosci. Methods, (2008) 169: 65-75). These genes encode for the α1β2γ2 and α4β3δ GABAA subunits respectively. Receptor expression was assessed using electrophysiology at least two days later. The ratio of RNA injection for α1β2γ2 was 1:1:1 and for α4β3δ was 5:1:5. Electrophysiological recordings were made using an automated process equipped with standard TEVC and data were captured and analyzed using a proprietary data acquisition and analysis software running under Matlab (Mathworks Inc.). The membrane potential of the oocytes was maintained at −80 mV throughout the experiments. To explore the effects of proprietary compounds, currents were evoked by applying 10 μM (α1β2γ2) or 3 μM (α4β3δ) GABA for 30 s. These concentrations approximated the EC50 concentration of GABA at each receptor subtype. Oocytes were then re-exposed to GABA again for 30 s. 15 s after beginning the GABA application, test article was co-applied at a concentration of 10 μM for 15 s. Potentiation of the peak current was assessed. Data was filtered at 10 Hz, captured at 100 Hz and analyzed using proprietary data acquisition and analysis software running under Matlab (Mathworks Inc.). For statistical analysis values were computed either with Excel (Microsoft) or Matlab (mathworks Inc.). To obtain mean measurements with standard deviations, all experiments were carried out using at least three cells.

T4 sequence (P48169 36-554): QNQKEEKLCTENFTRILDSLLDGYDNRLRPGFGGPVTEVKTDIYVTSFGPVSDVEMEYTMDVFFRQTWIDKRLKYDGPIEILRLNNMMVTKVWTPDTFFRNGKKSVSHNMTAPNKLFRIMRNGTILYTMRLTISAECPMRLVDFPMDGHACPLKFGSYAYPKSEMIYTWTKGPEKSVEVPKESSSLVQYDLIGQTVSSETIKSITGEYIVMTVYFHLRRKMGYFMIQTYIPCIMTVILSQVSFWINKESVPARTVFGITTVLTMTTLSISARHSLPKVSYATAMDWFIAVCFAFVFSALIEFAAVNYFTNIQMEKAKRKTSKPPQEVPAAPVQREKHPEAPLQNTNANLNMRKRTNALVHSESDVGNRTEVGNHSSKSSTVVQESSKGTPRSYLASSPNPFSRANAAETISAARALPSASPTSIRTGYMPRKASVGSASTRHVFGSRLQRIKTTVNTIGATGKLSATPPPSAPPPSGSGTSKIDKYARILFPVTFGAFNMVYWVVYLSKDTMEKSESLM
T4 sequence (P28472 26-473): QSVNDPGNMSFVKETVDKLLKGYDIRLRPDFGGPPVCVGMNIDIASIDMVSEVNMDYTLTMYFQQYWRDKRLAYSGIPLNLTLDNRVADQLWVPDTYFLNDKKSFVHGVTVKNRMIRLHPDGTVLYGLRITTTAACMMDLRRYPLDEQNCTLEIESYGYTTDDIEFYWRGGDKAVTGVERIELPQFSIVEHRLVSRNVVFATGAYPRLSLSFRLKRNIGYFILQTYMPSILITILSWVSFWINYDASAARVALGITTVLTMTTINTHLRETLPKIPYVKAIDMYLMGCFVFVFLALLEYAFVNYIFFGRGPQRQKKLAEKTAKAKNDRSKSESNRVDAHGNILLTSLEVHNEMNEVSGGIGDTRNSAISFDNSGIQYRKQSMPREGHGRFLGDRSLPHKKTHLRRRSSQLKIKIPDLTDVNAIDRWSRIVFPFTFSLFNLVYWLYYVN
T4 sequence (O14764 25-452 partner): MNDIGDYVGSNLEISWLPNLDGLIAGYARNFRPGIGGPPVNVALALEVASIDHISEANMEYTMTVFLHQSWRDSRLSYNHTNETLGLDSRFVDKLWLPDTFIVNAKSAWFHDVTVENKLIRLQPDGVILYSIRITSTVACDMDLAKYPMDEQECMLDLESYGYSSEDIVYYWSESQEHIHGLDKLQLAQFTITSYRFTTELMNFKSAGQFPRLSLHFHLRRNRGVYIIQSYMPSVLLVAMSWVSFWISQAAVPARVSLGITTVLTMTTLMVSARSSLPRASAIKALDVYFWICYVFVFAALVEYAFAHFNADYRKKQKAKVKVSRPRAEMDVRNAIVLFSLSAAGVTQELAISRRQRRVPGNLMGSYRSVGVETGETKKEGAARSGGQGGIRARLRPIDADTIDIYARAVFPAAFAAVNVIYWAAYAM
T1 sequence (P48169 36-554): as the sequence (P48169 36-554) above
T1 sequence (P28472 26-473): as the sequence (P28472 26-473) above
T1 sequence (O14764 25-452 partner): as the sequence (O14764 25-452 partner) above
T2 sequence (P14867 28-456): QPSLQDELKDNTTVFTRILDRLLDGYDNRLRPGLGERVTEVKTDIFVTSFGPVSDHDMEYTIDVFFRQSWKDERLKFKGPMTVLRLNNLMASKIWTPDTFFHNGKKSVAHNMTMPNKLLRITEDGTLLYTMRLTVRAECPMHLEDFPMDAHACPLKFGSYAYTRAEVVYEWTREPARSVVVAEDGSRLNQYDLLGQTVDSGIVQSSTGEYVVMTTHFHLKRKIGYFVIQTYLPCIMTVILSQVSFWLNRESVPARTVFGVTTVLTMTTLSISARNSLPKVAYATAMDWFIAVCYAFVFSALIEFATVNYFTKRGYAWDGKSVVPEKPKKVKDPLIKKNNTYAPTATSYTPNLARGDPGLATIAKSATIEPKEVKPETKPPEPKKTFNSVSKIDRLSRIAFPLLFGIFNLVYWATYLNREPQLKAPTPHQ
T2 sequence (P47870 26-512): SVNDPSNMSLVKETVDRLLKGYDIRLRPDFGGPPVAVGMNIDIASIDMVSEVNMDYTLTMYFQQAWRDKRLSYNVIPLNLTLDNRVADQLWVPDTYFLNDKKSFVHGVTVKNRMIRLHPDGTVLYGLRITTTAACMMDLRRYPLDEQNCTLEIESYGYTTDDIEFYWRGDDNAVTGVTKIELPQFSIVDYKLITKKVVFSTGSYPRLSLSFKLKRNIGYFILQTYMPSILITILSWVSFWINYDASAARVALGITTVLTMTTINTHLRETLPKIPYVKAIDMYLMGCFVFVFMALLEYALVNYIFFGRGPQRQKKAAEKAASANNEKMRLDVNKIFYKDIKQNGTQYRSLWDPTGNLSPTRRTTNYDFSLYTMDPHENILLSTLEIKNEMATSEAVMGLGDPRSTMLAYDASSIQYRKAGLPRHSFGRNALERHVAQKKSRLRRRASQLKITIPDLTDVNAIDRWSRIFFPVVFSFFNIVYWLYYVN
T2 sequence (P18507 40-475 partner): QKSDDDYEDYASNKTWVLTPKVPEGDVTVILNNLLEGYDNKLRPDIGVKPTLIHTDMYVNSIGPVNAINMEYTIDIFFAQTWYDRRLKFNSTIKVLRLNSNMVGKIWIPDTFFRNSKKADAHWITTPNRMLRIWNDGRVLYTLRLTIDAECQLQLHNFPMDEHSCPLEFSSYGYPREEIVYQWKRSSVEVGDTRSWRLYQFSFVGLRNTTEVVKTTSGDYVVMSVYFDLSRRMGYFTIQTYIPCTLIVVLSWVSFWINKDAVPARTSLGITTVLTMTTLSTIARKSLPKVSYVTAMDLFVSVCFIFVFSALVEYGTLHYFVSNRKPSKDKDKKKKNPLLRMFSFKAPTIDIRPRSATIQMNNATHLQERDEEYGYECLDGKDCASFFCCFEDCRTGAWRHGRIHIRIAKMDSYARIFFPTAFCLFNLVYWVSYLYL
T3 sequence (P14867 28-456): as the sequence (P14867 28-456) above
T3 sequence (P47870 26-512): as the sequence (P47870 26-512) above
T3 sequence (P18507 40-475 partner): as the sequence (P18507 40-475 partner) above

As usually defined, the IC50 is the concentration that inhibits the measured activity by half. On to `COC[C@]12CC[C@@](C)(O)C[C@@H]1CC[C@H]1[C@@H]3CC[C@H](C(=O)Cn4nccn4)[C@@]3(C)CC[C@@H]12` [Compound 1], for which the IC50 in data set [1] was 10 to 50 nM. For the same molecule, the Emax at 10 µM was above 500% in data set [2] and 100 to 500% in data set [3].

A word on the melting point: it is the temperature of the solid-liquid transition. On to `COC[C@]12CC[C@@](C)(O)C[C@@H]1CC[C@H]1[C@@H]3CC[C@H](C(=O)Cn4ccnn4)[C@@]3(C)CC[C@@H]12` [Compound 3], for which the melting point is 72 to 74 °C. Besides, the IC50 in data set [1] was above 500 nM.

For the molecule `COC[C@]12CC[C@@](C)(O)C[C@@H]1CC[C@H]1[C@@H]3CC[C@H](C(=O)CN4CCN(C)CC4)[C@@]3(C)CC[C@@H]12` [Compound 8], the melting point was in the range of 136 to 137 °C. Besides, in data set [1], the IC50 was above 500 nM.

Molecule `COC[C@]12CC[C@@](C)(O)C[C@@H]1CC[C@H]1[C@@H]3CC[C@H](C(=O)Cn4cc(C#N)cn4)[C@@]3(C)CC[C@@H]12` [Compound 13] yielded a melting point of 141 to 142 °C. Besides, in data set [1], the IC50 was 50 to 100 nM. Besides, the Emax at 10 µM in data set [4] lay in the range of 1000 to 1500%.

For `COC[C@]12CC[C@@](C)(O)C[C@@H]1CC[C@H]1[C@@H]3CC[C@H](C(=O)Cn4ncnn4)[C@@]3(C)CC[C@@H]12` [Compound 14], the melting point was 72 to 75 °C. For the same molecule, the IC50 in data set [1] lay in the range of 10 to 50 nM. For the same molecule, the Emax at 10 µM in data set [2] was above 500%. Besides, the Emax at 10 µM in data set [3] was 100 to 500%.

With `COC[C@]12CC[C@@](C)(O)C[C@@H]1CC[C@H]1[C@@H]3CC[C@H](C(=O)Cn4cnnn4)[C@@]3(C)CC[C@@H]12` [Compound 15], the melting point fell in the range of 88 to 91 °C. Moreover, the IC50 in data set [1] lay within 100 to 500 nM. In data set [2], the Emax at 10 µM lay within 100 to 500%. In data set [3], the Emax at 10 µM was above 500%.

For the molecule `COC[C@]12CC[C@@](C)(O)C[C@@H]1CC[C@H]1[C@@H]3CC[C@H](C(=O)Cn4nnnc4C)[C@@]3(C)CC[C@@H]12` [Compound 16], the IC50 in data set [1] was 10 to 50 nM. Moreover, the Emax at 10 µM in data set [2] and in data set [3] was above 500% each time.

In the case of `COC[C@]12CC[C@@](C)(O)C[C@@H]1CC[C@H]1[C@@H]3CC[C@H](C(=O)Cn4ccc(C#N)n4)[C@@]3(C)CC[C@@H]12` [Compound 19], the Emax at 10 µM in data set [2] and in data set [3] was 100 to 500% throughout.

As for `COC[C@]12CC[C@@](C)(O)C[C@H]1CC[C@H]1[C@@H]3CC[C@H](C(=O)Cn4cc(C#N)cn4)[C@@]3(C)CC[C@@H]12` [Compound 27], the melting point is 176 to 178 °C. Further, the IC50 in data set [1] is below 10 nM. Moreover, in data set [4], the Emax at 10 µM is 1000 to 1500%.

Turning to `COC[C@]12CC[C@@](C)(O)C[C@H]1CC[C@H]1[C@@H]3CC[C@H](C(=O)Cn4nnnc4C)[C@@]3(C)CC[C@@H]12` [Compound 30], in data set [1], the IC50 was below 10 nM. For the same molecule, the Emax at 10 µM was above 500% in data set [2] and 100 to 500% in data set [3].

The molecule `COC[C@]12CC[C@@](C)(O)C[C@H]1CC[C@H]1[C@@H]3CC[C@H](C(=O)Cn4cc(Cl)cn4)[C@@]3(C)CC[C@@H]12` [Compound 34] gave a melting point of 163 to 165 °C. In addition, in data set [1], the IC50 is below 10 nM. For the same molecule, the Emax at 10 µM in data set [4] was in the range of 50 to 500%.

As for `COC[C@]12CC[C@@](C)(O)C[C@@H]1CC[C@H]1[C@@H]3CC[C@H](C(=O)Cn4nc5ccc(Cl)cc5n4)[C@@]3(C)CC[C@@H]12` [Compound 35], in data set [1], the IC50 fell in the range of 10 to 50 nM. In addition, the Emax at 10 µM in data set [2] and in data set [3] was 100 to 500% throughout.

Take `COC[C@]12CC[C@@](C)(O)C[C@@H]1CC[C@H]1[C@@H]3CC[C@H](C(=O)Cn4nnc5ccc(Cl)cc54)[C@@]3(C)CC[C@@H]12` [Compound 36]: in data set [1], the IC50 is 10 to 50 nM. Besides, the Emax at 10 µM in data set [2] and in data set [3] was 100 to 500% in each case.

Regarding `COC[C@]12CC[C@@](C)(O)C[C@@H]1CC[C@H]1[C@@H]3CC[C@H](C(=O)Cn4nnc5cc(Cl)ccc54)[C@@]3(C)CC[C@@H]12` [Compound 37], the IC50 in data set [1] was 10 to 50 nM. Besides, the Emax at 10 µM in data set [2] and in data set [3] was above 500% in each case.

Take `COC[C@]12CC[C@@](C)(O)C[C@@H]1CC[C@H]1[C@@H]3CC[C@H](C(=O)Cn4nc5ccc(F)cc5n4)[C@@]3(C)CC[C@@H]12` [Compound 43]: the IC50 in data set [1] is below 10 nM. Also, the Emax at 10 µM in data set [2] was 100 to 500%; in data set [3], above 500%.

For `COC[C@]12CC[C@@](C)(O)C[C@@H]1CC[C@H]1[C@@H]3CC[C@H](C(=O)Cn4nnc5ccc(F)c(F)c54)[C@@]3(C)CC[C@@H]12` [Compound 52], the IC50 in data set [1] is 10 to 50 nM. Further, the Emax at 10 µM in data set [2] was above 500%; in data set [3], 100 to 500%.

As to `COC[C@]12CC[C@@](C)(O)C[C@@H]1CC[C@H]1[C@@H]3CC[C@H](C(=O)Cn4nc5ccc(F)c(F)c5n4)[C@@]3(C)CC[C@@H]12` [Compound 54], the IC50 in data set [1] lay within 10 to 50 nM. Besides, the Emax at 10 µM in data set [2] is above 500%; in data set [3], 100 to 500%.

In the case of `COC[C@]12CC[C@@](C)(O)C[C@@H]1CC[C@H]1[C@@H]3CC[C@H](C(=O)Cn4nc5cc(F)cc(F)c5n4)[C@@]3(C)CC[C@@H]12` [Compound 55], in data set [1], the IC50 fell in the range of 50 to 100 nM. The Emax at 10 µM in data set [2] and in data set [3] was above 500% each time.

Regarding `COC[C@]12CC[C@@](C)(O)C[C@H]1CC[C@H]1[C@@H]3CC[C@H](C(=O)Cn4nc5ccc(Cl)cc5n4)[C@@]3(C)CC[C@@H]12` [Compound 76], the IC50 in data set [1] was below 10 nM. Besides, the Emax at 10 µM in data set [2] and in data set [3] was above 500% each time.

As to `COC[C@]12CC[C@@](C)(O)C[C@@H]1CC[C@H]1[C@@H]3CC[C@H](C(=O)Cn4cc5cc(Cl)ccc5n4)[C@@]3(C)CC[C@@H]12` [Compound 106], the IC50 in data set [1] is 100 to 500 nM. Besides, the Emax at 10 µM fell in the range of 1000 to 1500% in data set [5] and 50 to 500% in data set [4].

As to `COC[C@]12CC[C@@](C)(O)C[C@@H]1CC[C@H]1[C@@H]3CC[C@H](C(=O)Cn4nc5ccc(Cl)c(F)c5n4)[C@@]3(C)CC[C@@H]12` [Compound 109], the IC50 in data set [1] was in the range of 50 to 100 nM. Also, the Emax at 10 µM was 1000 to 1500% in data set [5] and 50 to 500% in data set [4].

With `COC[C@]12CC[C@@](C)(O)C[C@@H]1CC[C@H]1[C@@H]3CC[C@H](C(=O)Cn4cc5ccc(Cl)cc5n4)[C@@]3(C)CC[C@@H]12` [Compound 113], the IC50 in data set [1] was 100 to 500 nM. Further, the Emax at 10 µM in data set [5] fell in the range of 500 to 1000%; in data set [4], 50 to 500%.
